Our source for the inhibition, IC50 and EC50 values is ChEMBL document CHEMBL4229507, “Identification of influenza PA-Nter endonuclease inhibitors using pharmacophore- and docking-based virtual screening” (Bioorg Med Chem, 2018).

As a reminder, the IC50 is the midpoint of a concentration-inhibition curve. By EC50 is commonly meant the concentration giving half of the maximal effect.

Experiment [1] addresses Polymerase acidic protein (Influenza A virus (strain A/X-31 H3N2)) (UniProt Q9IQ47). Description: (§1) Inhibition of recombinant Influenza A virus (A/X-31(H3N2)) N-terminal 6xHis-tagged PA-Nter (1 to 217 residues) expressed in Escherichia coli BL21-CodonPlus cells using M13mp18 as substrate after 1 hr by ethidium bromide staining-based agarose gel electrophoresis.
Experiment [2] deals with Polymerase acidic protein (Influenza A virus (strain A/X-31 H3N2), UniProt Q9IQ47). Described as §1.
A further experiment has as its system Influenza A virus. Description: Antiviral activity against Influenza A virus (A/Puerto Rico/8/1934(H1N1)) infected in MDCK cells after 24 hrs by immunofocus assay. In kind it is functional, organism-based.
Experiment [3] deals with unidentified influenza virus. Description: Antiviral activity against Influenza virus assessed as inhibition of viral transcription.

As for `NS(=O)(=O)c1ccc(C(=O)NCCc2ccc(O)c(O)c2)cc1`, the inhibition entry in experiment [1] is “Dose-dependent effect”. Moreover, the IC50 in experiment [2] was 12 µM.

As for `O=C(CCN1CCC(Cc2ccc(F)cc2)CC1)c1c[nH]c2cc(O)c(O)cc12`, the concentration for half-maximal inhibition (IC50) in experiment [2] was 243 µM.

For `O=C(C(=O)N1CCC(Cc2ccccc2)CC1)c1c[nH]c2cc(O)c(O)cc12`, the 50% inhibitory concentration (IC50) in experiment [2] was found to be 266 µM.

The compound `O=c1[nH]c(-c2ccc(F)cc2)c(-c2ccc(-c3nnn[nH]3)cc2)cc1O` gave an EC50 with Influenza A virus of 11.4 µM.

In the case of `O=C(O)/C(O)=C/C(=O)C1(Cc2ccc(Cl)cc2)CCN(Cc2ccccc2)CC1`, the IC50 in experiment [3] was determined as 0.43 µM.

As to `O=C(O)C(=O)CC(=O)c1ccccc1`, the IC50 in experiment [2] came to 3.2 µM.
